Source: paper PMC11596155, “When Chirality Makes the Difference: The Case of Novel Enantiopure N-Heterocyclic Carbene–Gold and –Silver Complexes” (Molecules, 2024)

Tests used:
[1] = test system: Staphylococcus aureus (ATCC 23235); test: MIC and MBC by broth dilution, S. aureus; type: cell-based; settings: broth dilution, overnight 37 °C
Text: (§1) The bacterial strains used for MIC and MBC value determinations expressed as µg/mL by the broth dilution method, according to CLSI guidelines, were the following: Gram-negative: Escherichia coli (ATCC® 25922TM); Gram-positive: Staphylococcus aureus (ATCC® 23235TM). The MIC represents the lowest concentration of compound able to inhibit the visible microbial growth, expressed in μg/mL, whereas the MBC is the lowest concentration of a given compound that can completely kill the bacteria. Bacteria were grown overnight in LB medium (2%), diluted at a density of […] colony forming units (CFUs/mL), plated in the 96-well microplates to obtain a total inoculum load of ca. 10^5 cells/well and then treated with increasing concentrations of the tested complexes (1, 5, 10, 20, 50, 100, 200 μg/mL). Successively, after incubation at 37 °C overnight, the bacterial growth was monitored at a wavelength of 600 nm using a Multiskan spectrophotometer (Multiskan Ex Microplate model; Thermo Scientific, Nyon, Switzerland). MIC or MBC values were obtained by comparing cell density with a positive control (bacterial cells grown in LB medium were added with only the vehicle, DMSO). The results were representative of three independent experiments performed in triplicate and ampicillin (Sigma Aldrich A9393) was used as the control for strain sensitivity.

MDA-MB-231 cells = test: MTT assay, anticancer activity, MDA-MB-231; type: cell-based, human; settings: 72 h, mean ± SD of three experiments
Protocol: (§2) All cell lines used for the reported studies were purchased from the American Type Culture Collection (ATCC, Manassas, VA, USA). Human breast cancer cells MCF-7 and MDA-MB-231 were maintained in Dulbecco’s Modified Eagle Medium/Nutrient Mixture F12 Ham (DMEM/F12) supplemented with 5% fetal bovine serum (FBS), 1% L-glutamine and 100 units/mL of penicillin/streptomycin. Human mammary epithelial cells MCF-10A were cultured in DMEM/F12 medium, supplemented with 5% horse serum (HS), 100 units/mL of penicillin/streptomycin, […], 0.02 µg/mL human epidermal growth factor (EGF), 10 µg/mL insulin and […] [34]. The murine macrophages RAW 264.7 were grown in Dulbecco’s Modified Eagle’s Medium (DMEM) high glucose (4.5 g/L), added with 10% fetal bovine serum (FBS), 1% L-glutamine and 100 units/mL of penicillin/streptomycin. Cells were maintained at 37 °C, in a humidified atmosphere containing 5% CO2.
(§3) Cell viability was determined using the 3-(4,5-dimethylthiazol-2-y1)-2,5-diphenyltetrazolium bromide assay (MTT, Sigma-Aldrich, Milan, Italy), as in [35]. Cells were treated for 72 h (anticancer activity) or 24 h (anti-inflammatory activity) at different concentrations and the IC50 values were obtained using GraphPad Prism 9 software (GraphPad Software, La Jolla, CA, USA).

[2] = test system: Escherichia coli (ATCC 25922); test: MIC and MBC by broth dilution, E. coli; type: cell-based; settings: broth dilution, overnight 37 °C
Text: as §1

[3] = test system: NO production in LPS-stimulated RAW 264.7 macrophages (iNOS); test: Griess assay, NO production in LPS-stimulated RAW 264.7 macrophages; type: cell-based, murine; settings: 24 h, LPS 1 µg/mL, RAW 264.7, vs LPS only
Text: Inflammation is an important process, in which the immune system is activated, allowing the protection from infections by eliminating pathogens and promoting repairing phenomena. However, in some cases, the inflammation can become chronic, playing a key role in several diseases, such as cancer, diabetes, autoimmune and neurodegenerative disorders. Moreover, chronic inflammation is characterized by a proliferation of different specialized cells, for instance macrophages, fibroblasts, granulocytes and so on. […] NO is produced by nitric oxide synthases (NOS) isoforms, but under different pro-inflammatory stimuli (cytokines or microbial products) it is massively produced by the inducible NOS (iNOS, NOS2; or type II NOS). iNOS can be also overexpressed in several diseases, producing NO in an unregulated manner and contributing to the disease progression. For these reasons, its inhibition represents a good strategy for the treatment of various diseases related to chronic inflammation, amongst them cancer. The anti-inflammatory activity, in terms of NO production inhibition, of the new synthesized chiral complexes was evaluated by the means of a Griess-based assay. Particularly, the NO production was induced in murine macrophages RAW 264.7 stimulated with bacterial lipopolysaccharide (LPS), then they were exposed to the complexes for 24 h and the released NO was quantified (as detailed in the Section 3). […] Therefore, pro-ligands P1 and P2, as R and S pure enantiomers, were tested. The obtained outcomes are visible in Figure 2 (panels A and B, P1 and P2 series, respectively), where it is possible to notice “at glance” that most of the enantiopure compounds were unable to decrease the NO synthesis, induced by LPS treatment in RAW 264.7 macrophages (see pink bars in the graph), with the exception of (R)-AuL1 and (R)-AuL2. Particularly, (R)-AuL1 was able to decrease, dose-dependently, the NO production of about 23 and 35% at 5 and 10 µM, respectively, whereas the S enantiomer was unable to reduce NO, under the same experimental conditions. […] Furthermore, none of the pro-ligands was found able to decrease NO production. […] Finally, viability assays were performed on RAW 264.7 macrophages, recovered after the Griess test.
Anti-inflammatory activity was tested adopting the Griess assay on RAW 264.7 murine macrophages, by measuring NO production, as reported by. Specifically, RAW 264.7 cells were plated on 48 multi-wells and treated with the tested molecules at the indicated concentrations; lipopolysaccharide (LPS, Sigma Aldrich, Milan, Italy), at a final concentration of 1 µg/mL, was used to induce inflammation and stimulate NO production. After 24 h, the cell medium and Griess reagent were mixed at a 1:1 ratio and left under agitation for 30 min, at room temperature. Then, absorbance was measured at 540 nm, using a multiplate reader. The absorbance obtained allowed to assess the percentage of NO production compared with the positive control, in which the cells have been treated with LPS.
Figure 2 Panel (A), L1 series and panel (B), L2 series. Anti-inflammatory activity (pink bars): NO production was induced in murine macrophages RAW 264.7 treated with LPS (1 µg/mL), in presence or not of the enantiopure complexes and pro-ligands at the indicated concentrations (µM), for 24 h. Indomethacin (Ind) was used as the reference molecule. Data were plotted as % NO inhibition with respect to LPS-only treatment. […]

MCF-10A cells = test: MTT assay, cytotoxicity on normal mammary epithelial cells MCF-10A; type: cell-based, human; settings: 72 h
Protocol: as §2, §3

MCF-7 cells = test: MTT assay, anticancer activity, MCF-7; type: cell-based, human; settings: 72 h, mean ± SD of three experiments
Protocol: as §2, §3

CN1C(Cl)=C(Cl)N(C[C@H](O)c2ccccc2)[CH]1[Au-][Cl] (stereo partly drawn) [(R)-AuL2, (4,5-dichloro-1-((R)-2-hydroxy-2-phenylethyl)-3-methyl-2,3-dihydro-1H-imidazol-2-yl)gold(I) chloride]
M.B.C. S. aureus [1]: > 100 µg/mL | M.I.C. S. aureus [1]: 75 µg/mL | IC50 (MDA-MB-231 cells): 1200 ± 200 nM | M.B.C. E. coli [2]: > 150 µg/mL | M.I.C. E. coli [2]: 75 µg/mL | decrease of NO production ([3]; 1 µM): about 10% | decrease of NO production ([3]; 5 µM): ~50% | cytotoxicity toward normal MCF-10A cells (in words) (MCF-10A cells): did not impact | IC50 (MCF-10A cells; normal cells, mean ± SD of three experiments): 38000 ± 2200 nM | IC50 (MCF-7 cells): 2200 ± 200 nM
